{"source": "patent US20130280343A1", "about": "“Food Products Derived From Cannabinoid-Administered Livestock” (priority 2012, published 2013)", "key": {"mice": {"test_system": "mice", "conditions": "orally administered; cited from earlier work"}, "[1]": {"test_system": "mice injected with 5-Hydroxytryptamine (a nociceptive agent)", "conditions": "orally administered; cited from earlier work"}, "[2]": {"test_system": "free range broiler chickens", "test": "dimethylheptylpyran capsules orally administered to free range broiler chickens", "assay_type": "in vivo", "conditions": "1 μg in cod liver oil capsules, twice-daily oral", "description": "In a final embodiment of the present invention, soft gel capsules containing 1 μg of dimethylheptylpyran dissolved in cod liver oil are twice-daily orally administered to free range broiler chickens. Dimethylheptylpyran is an extremely potent cannabinoid receptor agonist."}, "humans [3]": {"test_system": "humans", "test": "lowest observed effect level (LOEL) for psychoactive effects in humans", "assay_type": "in vivo", "conditions": "orally administered", "description": "Contrasting their extremely low toxicity, cannabinoids generally have very low effective doses. […] In humans, the lowest observed effect level (LOEL) for psychoactive effects induced by orally administered Δ^9-THC is 0.04 mg/kg, or 3.2 mg for the average 80 kg adult human. As a result, the therapeutic indices (LD50/ED50) of most cannabinoids are astoundingly high. It would be extremely difficult, if not impossible, for a human or animal to suffer permanent damage due to an intake of cannabinoids, absent a targeted effort to cause such damage."}, "[4]": {"test": "accumulation of Δ^9-THC in milk of dairy water buffalo grazing Cannabis indica Himalaya Gold", "assay_type": "in vivo", "conditions": "roughly 400 g Δ^9-THC orally per day, 20 L milk per day", "excerpt": "In a second embodiment of the present invention, dairy water buffalo are grazed in a pasture cultivated for their consumption which contains cereals, legumes, and Cannabis indica “Himalaya Gold” (a hardy, outdoor cultivar of Cannabis). The approximate Δ^9-THC, CBN, and CBD levels of the Himalaya Gold Cannabis cultivar are 10.0%, 1.0%, and 0.3%, respectively. The animals are left to graze according to their preference, and all three types of plants are consumed in significant quantity. Particularly, the water buffalo consume about 32 kg of raw plant material per day, of which an average of 4 kg is Cannabis. Thus, roughly 400 g of Δ^9-THC is orally administered to the animals each day.\nThe cannabinoids present in the Himalaya Gold Cannabis induce physiological effects which affect the composition of the water buffalo's milk. More specifically, several fat-soluble cannabinoids, including Δ^9-THC and 11-Hydroxy-Δ^9-tetrahydrocannabinol (11-OH-Δ^9-THC; an active metabolite of Δ^9-THC), accumulate in the milk during lactogenesis. The cannabinoid-containing raw milk is then harvested from the water buffalo by use of a rotary parlor milking station. […]"}, "[5]": {"test": "accumulation of Δ^9-THC in adipose tissue of finishing hogs given Cannabis tincture in water", "conditions": "100 mg Δ^9-THC orally each day"}, "humans [6]": {"test_system": "humans", "conditions": "orally administered; cited from earlier work"}}, "data": [{"smiles": "C=C(C)[C@@H]1CCC(C)=C[C@H]1c1c(O)cc(CCCCC)cc1O", "note": "[CBD, cannabidiol]", "values": [{"measurement": "median lethal dose (LD50)", "setting": "mice", "result": "13,500 mg/kg"}]}, {"smiles": "CCCCCc1cc(O)c2c(c1)OC(C)(C)c1ccc(C)cc1-2", "note": "[CBN, cannabinol]", "values": [{"measurement": "median lethal dose (LD50)", "setting": "mice", "result": "12,700 mg/kg"}, {"measurement": "median effective dose (ED50) for antinociception", "setting": "[1]", "result": 46.2, "unit": "mg/kg"}]}, {"smiles": "CCCCCC(C)C(C)c1cc(O)c2c(c1)OC(C)(C)C1=C2CC(C)CC1", "note": "(stereo not shown) [dimethylheptylpyran]", "values": [{"measurement": "calming effect", "setting": "[2]", "result": "significantly calms the chickens"}, {"measurement": "effect on aggressive behavior", "setting": "[2]", "result": "inhibits aggressive behavior"}]}, {"smiles": "[Cl-].[Na+]", "note": "[sodium chloride]", "values": [{"measurement": "median lethal dose (LD50)", "setting": "mice", "result": "4,000 mg/kg"}]}, {"smiles": "CCCCCc1cc(O)c2c(c1)OC(C)(C)[C@@H]1CCC(C)=C[C@@H]21", "note": "[Δ^9-THC, delta-9-tetrahydrocannabinol]", "values": [{"measurement": "median lethal dose (LD50)", "setting": "mice", "result": "21,600 mg/kg"}, {"measurement": "LOEL for psychoactive effects, for the average 80 kg adult human", "setting": "humans [3]", "result": 3.2, "unit": "mg"}, {"measurement": "average transfer rate into milk", "setting": "[4]", "result": 0.15, "unit": "%"}, {"measurement": "Δ^9-THC content of milk", "setting": "[4]", "result": "around 30 mg per L"}, {"measurement": "median effective dose (ED50) for antinociception", "setting": "[1]", "result": 1.0, "unit": "mg/kg"}, {"measurement": "average storage rate in adipose tissue", "setting": "[5]", "result": 0.1, "unit": "%"}, {"measurement": "lowest observed effect level (LOEL) for psychoactive effects", "setting": "humans [6]", "result": 0.04, "unit": "mg/kg"}]}]}
